Data as given in ChEMBL document CHEMBL5247659, “Design, Structure-Activity Relationships, and In Vivo Evaluation of Potent and Brain-Penetrant Imidazo[1,2-b]pyridazines as Glycogen Synthase Kinase-3β (GSK-3β) Inhibitors” (J Med Chem, 2023).
Blank lines part the entries; values can stand above or below the compound they belong to.

How the values were obtained:
[1] = Inhibition of N-terminal 6-His tagged human recombinant GSK3-beta H355L mutant using FL-KRREILSRRP[ps]ERYR-NH2 as substrate incubated for 20 hrs
[2] = target: Glycogen synthase kinase-3 alpha (Homo sapiens, UniProt P49840); assay: Inhibition of full length GST-tagged human recombinant GSK3-alpha using FL-KRREILSRRP[ps]ERYR-NH2 as substrate incubated for 20 hrs
[3] = Metabolic stability in human liver microsomes assessed as parent compound remaining at 0.5 uM incubated for 10 mins by LC-MS/MS analysis; format: ADME, Microsome; conditions: read-out: Stability
[4] = Metabolic stability in mouse liver microsomes assessed as parent compound remaining at 0.5 uM incubated for 10 mins by LC-MS/MS analysis; format: ADME, Microsome; conditions: read-out: Stability
[5] = Plasma protein binding in mouse assessed as unbound fraction at 10 uM measured for 5 hrs by equilibrium dialysis based LC-MS/MS analysis; format: ADME, cell-free
[6] = Plasma protein binding in human assessed as unbound fraction at 10 uM measured for 5 hrs by equilibrium dialysis based LC-MS/MS analysis; format: ADME, cell-free
[7] = Permeability of compound at pH 5.5 incubated for 4 hrs by PAMPA assay; format: ADME; conditions: read-out: permeability
[8] = Permeability of compound at pH 7.4 incubated for 4 hrs by PAMPA assay; format: ADME; conditions: read-out: permeability
[9] = Permeability across apical to basolateral side in human Caco-2 cells at 3 uM incubated for 2 hrs by LC-MS/MS analysis; format: ADME, cell-based; conditions: read-out: permeability
[10] = Permeability across basolateral to apical side in human Caco-2 cells at 3 uM incubated for 2 hrs by LC-MS/MS analysis; format: ADME, cell-based; conditions: read-out: permeability
[11] = target: P-glycoprotein (ABCB1) (Homo sapiens, UniProt P08183); assay: Substrate activity at P-glycoprotein in human Caco-2 cells assessed as efflux ratio of permeability across basolateral to apical side over apical to basolateral side at 3 uM incubated for 2 hrs by LC-MS/MS analysis; format: ADME, cell-based
[12] = Inhibition of tau 4R1N phosphorylation (unknown origin) at S396 residue transfected in human U2OS cells coexpressing GFP-tagged beta catenin incubated overnight by high content imaging assay
[13] = Clearance in 8 hr fasted C57BL6 mouse at 2 mg/kg, iv; format: ADME, organism-based; conditions: in vivo
[14] = Volume of distribution at steady state in 8 hr fasted C57BL6 mouse at 2 mg/kg, iv; format: ADME, organism-based; conditions: in vivo, read-out: Vdss
[15] = MRT in 8 hr fasted C57BL6 mouse at 2 mg/kg, iv; format: ADME, organism-based; conditions: in vivo
[16] = Half life in 8 hr fasted C57BL6 mouse at 2 mg/kg, iv; format: ADME, organism-based; conditions: in vivo
[17] = AUC tot in 8 hr fasted C57BL6 mouse at 10 mg/kg, po; format: ADME, organism-based; set-up: dose 10 mg/kg, route po; conditions: in vivo
[18] = Cmax in 8 hr fasted C57BL6 mouse at 10 mg/kg, po; format: ADME, organism-based; set-up: dose 10 mg/kg, route po; conditions: in vivo
[19] = Oral bioavailability in 8 hr fasted C57BL6 mouse at 10 mg/kg; format: ADME, organism-based; conditions: in vivo
[20] = target: Glycogen synthase kinase-3 beta (Homo sapiens, UniProt P49841); assay: Inhibition of GSK3-beta (unknown origin)
Sequence of Glycogen synthase kinase-3 beta (P49841 whole entry): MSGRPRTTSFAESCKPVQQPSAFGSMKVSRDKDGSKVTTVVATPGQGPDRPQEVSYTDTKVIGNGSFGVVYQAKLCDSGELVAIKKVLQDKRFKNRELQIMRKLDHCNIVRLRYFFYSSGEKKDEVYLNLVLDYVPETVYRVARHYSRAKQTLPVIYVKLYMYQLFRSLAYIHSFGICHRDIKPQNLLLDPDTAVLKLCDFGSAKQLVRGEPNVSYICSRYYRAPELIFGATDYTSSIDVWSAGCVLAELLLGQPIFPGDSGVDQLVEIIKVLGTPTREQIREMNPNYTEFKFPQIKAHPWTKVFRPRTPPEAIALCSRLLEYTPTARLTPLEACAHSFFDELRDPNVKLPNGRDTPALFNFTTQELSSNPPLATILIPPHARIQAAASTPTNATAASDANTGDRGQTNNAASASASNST

Sequence of Glycogen synthase kinase-3 alpha (P49840 whole entry): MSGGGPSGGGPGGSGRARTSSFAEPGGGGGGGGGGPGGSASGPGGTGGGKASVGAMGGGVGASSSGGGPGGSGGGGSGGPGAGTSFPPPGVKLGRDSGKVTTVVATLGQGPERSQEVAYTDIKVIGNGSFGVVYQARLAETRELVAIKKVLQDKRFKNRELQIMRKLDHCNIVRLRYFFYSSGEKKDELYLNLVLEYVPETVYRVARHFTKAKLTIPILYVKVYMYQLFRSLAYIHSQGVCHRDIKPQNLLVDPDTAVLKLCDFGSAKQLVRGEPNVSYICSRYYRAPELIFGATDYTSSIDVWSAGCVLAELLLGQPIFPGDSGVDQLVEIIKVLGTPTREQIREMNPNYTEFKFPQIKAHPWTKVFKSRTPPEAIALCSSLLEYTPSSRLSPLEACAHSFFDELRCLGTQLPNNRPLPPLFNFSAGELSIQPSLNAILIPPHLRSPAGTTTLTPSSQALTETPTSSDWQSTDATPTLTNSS
Sequence of P-glycoprotein (ABCB1) (P08183 whole entry): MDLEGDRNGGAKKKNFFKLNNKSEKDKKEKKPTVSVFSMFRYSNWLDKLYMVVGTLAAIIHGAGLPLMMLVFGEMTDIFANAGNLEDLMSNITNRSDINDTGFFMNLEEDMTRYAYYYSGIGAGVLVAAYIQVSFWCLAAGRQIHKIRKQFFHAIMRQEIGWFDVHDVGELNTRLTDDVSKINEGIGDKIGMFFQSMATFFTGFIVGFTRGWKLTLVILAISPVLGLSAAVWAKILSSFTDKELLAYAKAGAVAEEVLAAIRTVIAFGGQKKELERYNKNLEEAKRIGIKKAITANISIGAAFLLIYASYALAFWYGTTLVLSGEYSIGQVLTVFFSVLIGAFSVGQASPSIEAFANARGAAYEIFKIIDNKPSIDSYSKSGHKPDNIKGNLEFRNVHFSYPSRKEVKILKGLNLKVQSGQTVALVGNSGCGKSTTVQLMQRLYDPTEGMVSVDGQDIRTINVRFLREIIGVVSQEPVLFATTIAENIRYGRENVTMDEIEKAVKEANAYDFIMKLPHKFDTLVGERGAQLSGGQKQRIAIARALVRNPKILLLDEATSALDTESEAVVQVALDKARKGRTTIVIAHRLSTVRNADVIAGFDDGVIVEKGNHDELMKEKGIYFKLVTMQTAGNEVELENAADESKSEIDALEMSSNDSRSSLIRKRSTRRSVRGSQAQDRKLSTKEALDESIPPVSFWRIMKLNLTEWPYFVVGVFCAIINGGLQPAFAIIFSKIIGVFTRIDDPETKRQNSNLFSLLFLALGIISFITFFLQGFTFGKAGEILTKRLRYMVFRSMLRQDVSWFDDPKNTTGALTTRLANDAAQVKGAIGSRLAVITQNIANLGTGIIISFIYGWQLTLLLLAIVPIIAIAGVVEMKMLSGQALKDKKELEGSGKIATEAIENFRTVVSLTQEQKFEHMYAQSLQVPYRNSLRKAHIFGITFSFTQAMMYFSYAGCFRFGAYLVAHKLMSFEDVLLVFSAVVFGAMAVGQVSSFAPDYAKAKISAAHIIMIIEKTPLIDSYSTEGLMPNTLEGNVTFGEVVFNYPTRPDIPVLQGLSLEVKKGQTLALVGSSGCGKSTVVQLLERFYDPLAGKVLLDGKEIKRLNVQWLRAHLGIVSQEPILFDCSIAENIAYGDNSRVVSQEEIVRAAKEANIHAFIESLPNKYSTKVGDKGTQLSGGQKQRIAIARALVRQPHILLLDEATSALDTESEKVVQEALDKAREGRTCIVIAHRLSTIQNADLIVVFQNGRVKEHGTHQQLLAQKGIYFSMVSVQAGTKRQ

IC50 [1]: 220 nM
IC50 [2]: 510 nM
Structure (SMILES): O=C(Nc1cccnc1)c1ccnn2c(NCC3CC3)cnc12

IC50 [1]: 0.13 nM
IC50 [2]: 0.1 nM
Structure (SMILES): C[C@H]1CN(c2ccncc2NC(=O)c2ccnn3cc(-c4ccccc4)nc23)CCO1

IC50 [2]: 6.7 nM
Structure (SMILES): O=C(Nc1cccnc1)c1ccnn2cc(-c3ccccc3)nc12

IC50 [1]: 0.37 nM
IC50 [2]: 0.22 nM
remaining at 10 min, 0.5 µM [3]: 40%
remaining at 10 min, 0.5 µM [4]: 36%
fraction unbound at 5 h, 10 µM [5]: 0.002
fraction unbound at 5 h, 10 µM [6]: 0.005
Papp at 4 h [7]: 58.1 ×10⁻⁶ cm/s
Papp at 4 h [8]: 64.2 ×10⁻⁶ cm/s
Papp A→B at 2 h, 3 µM [9]: 7 ×10⁻⁶ cm/s
Papp B→A at 2 h, 3 µM [10]: 3 ×10⁻⁶ cm/s
efflux ratio at 2 h, 3 µM [11]: < 1
IC50 [12]: 30 nM
Structure (SMILES): O=C(Nc1cnccc1N1CCC(F)(F)CC1)c1ccnn2cc(-c3ccccc3)nc12

IC50 [1]: 7 nM
Structure (SMILES): CC1CN(c2ccncc2NC(=O)c2ccnn3ccnc23)CCO1 (centres undefined)

IC50 [1]: 9 nM
Structure (SMILES): O=C(Nc1cnccc1N1CCOCC1)c1ccnn2c(NCC3CC3)cnc12

IC50 [1]: 3.5 nM
IC50 [2]: 2 nM
Structure (SMILES): O=C(Nc1cnccc1-c1ccccc1)c1ccnn2c(NCC3CC3)cnc12

IC50 [1]: 0.57 nM
IC50 [2]: 0.38 nM
Structure (SMILES): COc1ccccc1-c1cn2nccc(C(=O)Nc3cnccc3N3CCOC(C)C3)c2n1 (centres undefined)

IC50 [1]: 2.6 nM
remaining at 10 min, 0.5 µM [3]: 3%
remaining at 10 min, 0.5 µM [4]: 4%
fraction unbound at 5 h, 10 µM [5]: 0.031
fraction unbound at 5 h, 10 µM [6]: 0.015
Papp at 4 h [7]: 86.9 ×10⁻⁶ cm/s
Papp at 4 h [8]: 107 ×10⁻⁶ cm/s
Papp A→B at 2 h, 3 µM [9]: 22.3 ×10⁻⁶ cm/s
Papp B→A at 2 h, 3 µM [10]: 13.3 ×10⁻⁶ cm/s
clearance [13]: 49.5 mL/min/kg
Vd [14]: 1.9 L/kg
MRT [15]: 0.6 h
half-life [16]: 1.1 h
AUC [17]: 3.3 µM·h
Cmax [18]: 1.3 µM
bioavailability [19]: 37%
efflux ratio at 2 h, 3 µM [11]: < 1
IC50 [12]: 60 nM
Structure (SMILES): CC1CN(c2ccncc2NC(=O)c2ccnn3cc(C4CC4)nc23)CCO1 (centres undefined)

IC50 [1]: 1.9 nM
IC50 [2]: 0.44 nM
Structure (SMILES): O=C(Nc1cnccc1-c1ccc(F)cc1)c1ccnn2cc(C3CC3)nc12

IC50 [1]: 3.4 nM
Structure (SMILES): C[C@@H]1COCCN1c1ccncc1NC(=O)c1ccnn2cc(-c3ccccc3)nc12

IC50 [1]: 4.6 nM
IC50 [2]: 2.4 nM
Structure (SMILES): O=C(Nc1cnccc1N1CCC(F)(F)CC1)c1ccnn2ccnc12

IC50 [1]: 14 nM
Structure (SMILES): O=C(Nc1cnc(Cl)cc1N1CCC(F)(F)CC1)c1ccnn2cc(-c3ccccc3)nc12

IC50 [1]: 37 nM
IC50 [2]: 7.5 nM
Structure (SMILES): COc1cncc(NC(=O)c2ccnn3cc(-c4ccccc4)nc23)c1

IC50 [1]: 5.2 nM
Structure (SMILES): CC1CN(c2ccncc2NC(=O)c2ccnn3c(NCC4CC4)cnc23)CCO1 (centres undefined)

IC50 [1]: 0.42 nM
IC50 [2]: 0.21 nM
remaining at 10 min, 0.5 µM [3]: 31%
remaining at 10 min, 0.5 µM [4]: 9%
fraction unbound at 5 h, 10 µM [5]: 0.01
fraction unbound at 5 h, 10 µM [6]: 0.012
Papp at 4 h [7]: 7.8 ×10⁻⁶ cm/s
Papp at 4 h [8]: 29.8 ×10⁻⁶ cm/s
Papp A→B at 2 h, 3 µM [9]: 32.2 ×10⁻⁶ cm/s
Papp B→A at 2 h, 3 µM [10]: 9.9 ×10⁻⁶ cm/s
clearance [13]: 10.6 mL/min/kg
Vd [14]: 1.5 L/kg
MRT [15]: 2.4 h
half-life [16]: 3.1 h
AUC [17]: 47 µM·h
Cmax [18]: 10.7 µM
bioavailability [19]: 100%
efflux ratio at 2 h, 3 µM [11]: < 1
IC50 [12]: 36 nM
Structure (SMILES): O=C(Nc1cnccc1N1CCOCC1)c1ccnn2cc(-c3ccccc3)nc12

IC50 [1]: 0.43 nM
IC50 [2]: 0.18 nM
IC50 [12]: 120 nM
Structure (SMILES): O=C(Nc1cnccc1N1CCC(F)(F)CC1)c1ccnn2cc(C3CC3)nc12

IC50 [1]: 1.1 nM
IC50 [2]: 0.24 nM
Structure (SMILES): O=C(Nc1cnccc1N1CCCCC1)c1ccnn2cc(-c3ccccc3)nc12

IC50 [1]: 0.78 nM
IC50 [2]: 0.23 nM
Structure (SMILES): O=C(Nc1cnccc1N1CCOCC1)c1ccnn2cc(-c3ccc(C(F)(F)F)cc3)nc12

IC50 [1]: 1.6 nM
IC50 [2]: 1.1 nM
remaining at 10 min, 0.5 µM [3]: 91%
remaining at 10 min, 0.5 µM [4]: 92%
fraction unbound at 5 h, 10 µM [5]: 0.002
fraction unbound at 5 h, 10 µM [6]: 0.003
Papp at 4 h [7]: 96 ×10⁻⁶ cm/s
Structure (SMILES): O=C(Nc1cnccc1-c1ccc(F)cc1)c1ccnn2cc(-c3ccccc3)nc12

IC50 [1]: 63 nM
Structure (SMILES): Cc1ccncc1NC(=O)c1ccnn2c(NCC3CC3)cnc12

IC50 [1]: 1.5 nM
Structure (SMILES): CS(=O)(=O)c1ccncc1NC(=O)c1ccnn2cc(-c3ccccc3)nc12

IC50 [1]: 0.87 nM
IC50 [2]: 1.4 nM
IC50 [12]: 41 nM
Structure (SMILES): O=C(Nc1cnccc1N1CCC(F)(F)CC1)c1ccnn2c(NCC3CC3)cnc12

IC50 [1]: 0.29 nM
IC50 [2]: 0.09 nM
Structure (SMILES): O=C(Nc1cnccc1OCC(F)(F)F)c1ccnn2cc(-c3ccccc3)nc12

IC50 [1]: 6.7 nM
Structure (SMILES): CC(C)Oc1ccncc1NC(=O)c1ccnn2c(NCC3CC3)cnc12

IC50 [1]: 3.6 nM
remaining at 10 min, 0.5 µM [3]: 79%
remaining at 10 min, 0.5 µM [4]: 83%
fraction unbound at 5 h, 10 µM [5]: 0.003
fraction unbound at 5 h, 10 µM [6]: < 0.001
Papp at 4 h [7]: 20.2 ×10⁻⁶ cm/s
Papp at 4 h [8]: 28.2 ×10⁻⁶ cm/s
IC50 [12]: 910 nM
Structure (SMILES): O=C(Nc1cnccc1-c1ccccc1)c1ccnn2cc(-c3ccccc3)nc12

IC50 [1]: 1.4 nM
IC50 [2]: 0.57 nM
Structure (SMILES): CC1CN(c2ccncc2NC(=O)c2ccnn3cc(-c4ccc(C(F)(F)F)cc4)nc23)CCO1 (centres undefined)

IC50 [1]: 3.5 nM
Structure (SMILES): Cc1ccncc1NC(=O)c1ccnn2cc(-c3ccccc3)nc12

IC50 [2]: 0.32 nM
Structure (SMILES): C[C@H]1COCCN1c1ccncc1NC(=O)c1ccnn2cc(-c3ccccc3)nc12

IC50 [1]: 0.7 nM
IC50 [2]: 0.41 nM
IC50 [12]: 83 nM
Structure (SMILES): CC(C)Oc1ccncc1NC(=O)c1ccnn2cc(-c3ccccc3)nc12

IC50 [20]: 2 nM
Structure (SMILES): CC(C)OCCCC(=O)c1n[nH]cc1NC(=O)c1ccccc1

IC50 [1]: 0.82 nM
IC50 [2]: 0.34 nM
Structure (SMILES): C[C@@H]1CN(c2ccncc2NC(=O)c2ccnn3cc(-c4ccccc4)nc23)CCO1
